Measurements reported in PubChem BioAssay (NCI).
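Test compounds were applied to cells in 96-well plates for 48 hours at 5 doses. TGI marks complete inhibition of growth.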

Experiments:
Experiment in all cases: NCI-60 cell line screen, 48 h
A549 NSCLC = test system: A549 NSCLC
ACHN renal = test system: ACHN renal
K-562 leukemia = test system: K-562 leukemia
LOX IMVI melanoma = test system: LOX IMVI melanoma
NCI-H522 lung = test system: NCI-H522 lung
OVCAR-3 ovarian = test system: OVCAR-3 ovarian
OVCAR-5 ovarian = test system: OVCAR-5 ovarian
SF-268 CNS = test system: SF-268 CNS
SK-MEL-28 melanoma = test system: SK-MEL-28 melanoma
SNB-19 CNS = test system: SNB-19 CNS
SNB-75 CNS = test system: SNB-75 CNS
SW-620 colon = test system: SW-620 colon
UACC-62 melanoma = test system: UACC-62 melanoma
UO-31 renal = test system: UO-31 renal
MCF7 breast = test system: MCF7 breast
T-47D breast = test system: T-47D breast
MDA-N = test system: MDA-N

| SMILES | TGI (A549 NSCLC) | TGI (ACHN renal) | TGI (K-562 leukemia) | TGI (LOX IMVI melanoma) | TGI (NCI-H522 lung) | TGI (OVCAR-3 ovarian) | TGI (OVCAR-5 ovarian) | TGI (SF-268 CNS) | TGI (SK-MEL-28 melanoma) | TGI (SNB-19 CNS) | TGI (SNB-75 CNS) | TGI (SW-620 colon) | TGI (UACC-62 melanoma) | TGI (UO-31 renal) | TGI (MCF7 breast) | TGI (T-47D breast) | TGI (MDA-N) |
| --- | --- | --- | --- | --- | --- | --- | --- | --- | --- | --- | --- | --- | --- | --- | --- | --- | --- |
| O=C(Cc1ccccc1)NN1C(=O)C(Cl)C1c1cc(Br)cc(Br)c1O (stereo not given) | 76.1 µM | > 100 µM | 34.1 µM | 40 µM | 16.9 µM | 10.7 µM | 38.5 µM | 43.3 µM | 35.3 µM | 38.9 µM | 56.1 µM | 30.5 µM | 61.6 µM | 20.6 µM |  |  |  |
| CSc1ccc2c(cc1=O)C(NC(=O)c1cc(O)c(OC(=O)O)c(O)c1)CCc1cc(O)c(O)c(O)c1-2 (stereo not given) | 52 µM | > 90 µM | 42.3 µM | 24.8 µM | 21.8 µM | 40 µM | > 9 µM | 43 µM | 56.2 µM | > 90 µM | > 90 µM | 29.3 µM | 30.6 µM | > 90 µM |  |  |  |
| COc1ccccc1OCc1nnc(SCC(=O)O)n1-c1ccccc1 | > 100 µM | > 100 µM |  | > 100 µM | > 100 µM | > 100 µM | > 100 µM | > 100 µM | > 100 µM |  | > 100 µM |  | > 100 µM | > 100 µM |  |  |  |
| CCOC(=O)NC(=O)c1cn(-c2ccc(CCOC(=O)CCCCCCCCC(=O)OCCc3ccc(-n4cc(C(=O)NC(=O)OCC)c(=O)[nH]c4=O)cc3)cc2)c(=O)[nH]c1=O | > 100 µM | > 100 µM | > 100 µM | > 100 µM |  | > 100 µM | > 100 µM | > 100 µM | > 100 µM | > 100 µM |  | > 100 µM | > 100 µM | > 100 µM |  |  |  |
| CCOC(=O)C1=C(C)N(Cc2ccc(Cl)cc2Cl)C2(O)C(OC)CC(=O)C3C(=O)N(c4ccccc4)C(=O)C132 (stereo not given) | 12.4 µM | 15.2 µM | 3.87 µM | 2.23 µM | 7.56 µM | 3.44 µM | 28.5 µM | 14.3 µM | 4.37 µM | 11.8 µM |  | 7.15 µM | 11.9 µM | 18.7 µM | 8.46 µM | 2.57 µM |  |
| CCOP(=O)(C/C(=N/NC(C)(C)C)C(=O)Nc1nc2ccc(C)cc2s1)OCC | > 100 µM | > 100 µM | > 100 µM | > 100 µM | > 100 µM | > 100 µM | > 100 µM | > 100 µM | > 100 µM | > 100 µM | > 100 µM | > 100 µM | > 100 µM | > 100 µM |  |  |  |
| N[C@H]1CCc2c1nc1c(c2-c2ccccc2)CC[C@@H]1N | > 100 µM | > 100 µM | 26.6 µM | 30.6 µM | 30.1 µM |  | 59.7 µM | 59.8 µM |  | > 100 µM | 29.5 µM | 27.5 µM |  |  | 64.3 µM |  |  |
| CN(C)CC1CCC(CN(C)C)C1=NO (stereo not given) | > 100 µM | > 100 µM | > 100 µM | > 100 µM | > 100 µM | > 100 µM | > 100 µM | > 100 µM | > 100 µM |  | > 10 µM | > 100 µM | > 100 µM | > 100 µM |  |  |  |
| CCC(=O)NCC1(c2c[nH]c3ccccc23)SCCS1 | > 100 µM | > 100 µM | > 100 µM | > 100 µM | > 100 µM | > 100 µM | > 100 µM | > 100 µM | > 100 µM | > 100 µM | > 100 µM | > 100 µM | > 100 µM |  |  |  |  |
| COC(=O)C(=O)C(C(=O)C(=O)Nc1ccc([N+](=O)[O-])cc1C#N)c1nc2ccc([N+](=O)[O-])cc2[nH]c1=O (stereo not given) | > 100 µM | > 100 µM | > 100 µM | > 100 µM | > 100 µM | > 100 µM | > 100 µM | > 100 µM |  | > 100 µM | > 100 µM | > 100 µM | > 100 µM | > 100 µM |  |  |  |
| C=C(Cl)C(Br)(CCl)CCC(Cl)C(C)C (stereo not given) (tested in a mixture with another compound) | 31.9 µM | 3.98 µM | 24.2 µM | 1.23 µM | 2.95 µM | 5.15 µM | 6.69 µM | 3.53 µM | 3.21 µM | 10.7 µM | 2.35 µM | 2.96 µM | 2.59 µM | 3.01 µM |  |  | 3.45 µM |
| CC(=O)C1CC2(c3ccccc3)C(=O)c3ccccc3N2O1 (stereo not given) | > 100 µM | > 100 µM | > 100 µM |  | > 100 µM |  |  | > 100 µM | > 100 µM | > 100 µM | > 100 µM | > 100 µM | > 100 µM | > 100 µM |  |  |  |
| CC1(Br)C(=O)NC(=O)N([C@H]2C[C@H](O)[C@@H](CO)O2)C1N=[N+]=[N-] (stereo not given in full) | > 100 µM | > 100 µM | > 100 µM | > 100 µM | > 100 µM | > 100 µM | > 100 µM | > 100 µM | > 100 µM | > 100 µM | > 100 µM | > 100 µM | > 100 µM | > 100 µM |  |  |  |
